“Also recorded” adds a separate entry of the source. Read-outs that look alike come from different tables or passages of the source.
Columns and labels:
[1] = test system: WEHI-3B cell lysosomes; assay: Transmission electron microscopy of lysosomes of CBE treated WEHI-3B cells; type: cell-based, murine; conditions: transmission electron microscopy (FIG. 6)
[2] = test system: glycolipid biosynthesis in HL-60 cells; assay: Inhibition of glycolipid biosynthesis in HL-60 cells, [14C]-palmitic acid labelling, 1D-TLC; type: cell-based, human; conditions: for minimal effective concentration: Homo sapiens;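 on all read-outs here: cells cultured 24 h with or without test compound, total cellular lipids resolved by one-dimensional TLC and detected by autoradiography, inhibition shown as missing Glc-Cer and gangliosides versus untreated cells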
[3] = test system: α-glucosidase I and II; assay: Inhibition of purified processing α-glucosidase I and II; type: biochemical; conditions: for inhibition of processing α-glucosidases I and II / N-linked oligosaccharide processing: in words
Protocol: Porcine liver α-glucosidase I and rat liver α-glucosidase II were purified to homogeneity and assayed by conventional procedure using a [^14 C]-glucose labelled Glc3 Man9 GlcNAc2 substrate as previously described by Karlsson et al., J. Biol. Chem. 268, 570-576 (1993).
Enzymes were assayed according to procedure described hereinbefore using
The data from FIG. 8 were […]

[4] = test system: oligosaccharide biosynthesis in HL-60 cells; assay: Glycopeptide analysis by Con A-SEPHAROSE chromatography, HL-60 cells; type: cell-based, human
[5] = test system: oligosaccharide biosynthesis in BW5147 cells; assay: Glycopeptide analysis by Con A-SEPHAROSE chromatography, BW5147 cells; type: cell-based, murine
[6] = test system: glycolipid and phospholipid species in HL-60 cells; assay: 2D-TLC analysis of total HL-60 lipids labelled with [14C]-palmitic acid; type: cell-based, human; conditions: 2D-TLC (FIG. 2)
Protocol: 2D-TLC separation was made of total HL-60 lipids labelled with [^14 C]-palmitic acid. Cells were treated with either 0.5 mM NB-DNJ or NB-DGJ or untreated (UT). Lipids were assigned as follows (untreated cells, lefthand panel, FIG. 2A): 1, gangliosides; 2, lysophospatidylcholine; 3, ceramide phosphorylcholine; 4, ceramide phosphorylethanolamine; 5, phospatidylcholine; 6, phosphatidylinositol; 7, phosphatidylethanolamine; 8, phosphatidylglycerol; 9, diglycosylceramide; 10, monoglycosylceramide; 11, cholesterol/fatty acids/neutral lipids; N and N* are unknowns; and 0 is the sample origin. Following NB-DNJ and NB-DGJ treatment (middle and righthand panels, FIGS. 2B and 2C, respectively) species 1 (gangliosides);9 (diglycosylceramide); 10 (monoglycosylceramide) and N* (unknown) were absent. The radiolabelled lipids were visualized by autoradiography.
HL-60 cells were cultured by conventional procedure as previously described by Platt et al., Eur. J. Biochem. 208, 187-193 (1992). HL-60 cells at 5×10^4 cells/ml were cultured in the presence or absence of imino sugars for 24 hr. For labelling, the two dimensional thin layer chromatography (2D-TLC) conventional method of Butters and Hughes was followed [In Vitro 17, 831-838 (1981)]. Briefly, [^14 C]-palmitic acid (56.8 mCi/mmol, ICN/Flow) was added as a sonicated preparation in foetal calf serum (FCS, Techgen, London, U.K., 0.5 μCi/ml) and the cells cultured for a further 3 days maintaining the imino sugars in the medium. The cells were harvested, washed three times with phosphate buffered saline (PBS), extracted in 1 ml chloroform:methanol (2:1 v/v) and separated by 1 dimensional TLC, loading equal counts (1D-TLC, chloroform:methanol:water (65:25:4)). For two dimensional separations the one dimensional separation was performed as described above, the plate dried overnight under vacuum and separated in the second dimension using a solvent of tetrahydrofuran: dimethoxymethane:methanol:water (10:6:4:1). Plates were air dried and exposed to Hyperfilm-MP high performance autoradiography film (Amersham).

[7] = test system: N-linked oligosaccharide processing of gp120 in CHO cells (α-glucosidases I and II); assay: Endo H sensitivity of gp120 expressed in CHO cells (N-linked oligosaccharide processing); type: cell-based, Chinese hamster
Protocol: The arrows indicate the molecular weight of the untreated gp120 (120 kDa) and post endo H digestion (60 kDa). An additional band of low molecular weight (approximately 60 kDa) was present in some lanes and is a non-specific protein precipitated by the solid phase matrix.
The culture of CHO cells expressing soluble recombinant gp120 (from Dr. P. Stevens, MRC AIDS Directed Programme Reagent Project) and the radiolabelling of these cells was carried out by conventional procedure as described by Karlsson et al., J. Biol. Chem. 268, 570-576 (1993). Briefly, CHO cells were harvested mechanically, washed three times with phosphate buffered saline, 0.1M pH 7.2 (PBS) and resuspended in methionine- and cysteine-free RPMI-1640 medium (ICN-Flow Laboratories, High Wycombe, Bucks, U.K.) supplemented with 1% dialysed FCS. Cells (10^7 /ml) were preincubated in the presence or absence of NB-DNJ or NB-DGJ for 1 hr prior to the addition of 100 μCi/ml Tran^35 S-label (ICN-Flow) for 4 hr. The supernatants were collected and concentrated tenfold using a 30 kDa cut-off membrane (Amicon, Danvers, Mass., U.S.A.).
Immunoprecipitations were performed by conventional procedure as described by Karlsson supra. Supernatants were incubated with the mAb ABT 1001 monoclonal antibody (American Biotechnologies Inc., Cambridge, Mass., U.S.A.) at 0.5 μg/100 μl of supernatant for 30 min. at room temperature followed by sheep anti-mouse IgG1-coated magnetic beads (Dynal Ltd., Wirral, Merseyside, U.K., 1.2×10^7 beads per sample) for 1 hr. at 4° C. The beads were washed three times with 2% TRITON® X-100 in PBS and three times with PBS. Gp120 was eluted in […] reducing SDS-PAGE sample buffer with heating (95° C., 5 min.). Each sample was divided into two equal aliquots and 25 μl of dH2 O added to give a final volume of 50 μl. To one half of each sample 2 μl of endoglycosidase H (endo H, 1 unit/ml, Boehringer Mannheim Ltd., Lewes, Sussex, U.K.) was added and the other half left untreated. […]

[8] = test system: HL-60 cells; assay: Cytotoxicity in the dose range tested; type: cell-based, human

For `CCCCN1C[C@H](O)[C@@H](O)[C@@H](O)[C@H]1CO` [NB-DGJ, N-butyl deoxygalactonojirimycin], the “glycolipid accumulation in lysosomes” value [1] was “prevented the glycolipid accumulation”, the “lipid species whose biosynthesis was inhibited” value ([2]; HL-60, 500 μM, 1D-TLC) was “inhibited the biosynthesis of Glc-Cer, gangliosides and an unknown lipid species” and the “inhibition of glycolipid biosynthesis” value ([2]; HL-60, 500 μM, 1D-TLC (FIG. 1)) was “specifically inhibited glycolipid biosynthesis”. The “effect of N-alkyl chain length on inhibition of glycolipid biosynthesis (loss of detectable Glc-Cer)” value ([2]; HL-60, 0.5 mM, 1D-TLC (FIG. 4), listed as N-butyl DGJ) was “completely prevented glycolipid biosynthesis; also recorded: completely inhibited glycolipid biosynthesis”, the minimal effective concentration ([2]; HL-60, relatively low concentration, read-out: concentration inhibitory of glycolipid biosynthesis) was roughly 50 µM and the minimal effective concentration ([2]; HL-60, 1D-TLC (FIG. 3), partial inhibition, read-out: concentrations as low as which partial inhibition occurred) was 0.5 to 5 µM. The “inhibition of processing α-glucosidases I and II / N-linked oligosaccharide processing” value [3] was “does not inhibit N-linked oligosaccharide processing”, the “inhibition of processing α-glucosidases I and II / N-linked oligosaccharide processing” value ([3]; listed as N-butyl DGJ) was “does not inhibit” and the IC50 ([3]; mixture of purified α-glucosidases I and II) was 2130 µM. The “Total 3H-mannose recovered” value ([4]; HL-60) was 844322 cpm, the Bi-antennary ([4]; HL-60, percentage of radiolabelled glycopeptides eluted with 10 mM methylglucoside) was 17.7% and the “Oligo-mannose & hybrid” value ([4]; HL-60, percentage of radiolabelled glycopeptides eluted with 500 mM methylmannoside) was 54.2%. For the same compound, the “Tetra- & Tri-antennary” value ([4]; HL-60, percentage of radiolabelled glycopeptides non-bound) was 28.1%, the “glycopeptide profile by Con A-SEPHAROSE chromatography” value ([4]; HL-60 and BW5147) was “unchanged glycopeptide profile” and the “Total 3H-mannose recovered” value [5] was 706873 cpm. For the same compound, the Bi-antennary ([5]; percentage of radiolabelled glycopeptides eluted with 10 mM methylglucoside) was 7.2%, the “Oligo-mannose & hybrid” value ([5]; percentage of radiolabelled glycopeptides eluted with 500 mM methylmannoside) was 52.4% and the “Tetra- & Tri-antennary” value ([5]; percentage of radiolabelled glycopeptides non-bound) was 40.4%. For the same compound, the “gangliosides, unknown lipid (N*), mono and dihexaside species following treatment” value ([6]; HL-60, 0.5 mM) was “absent”, the “depletion of glycolipid species” value ([6]; HL-60, 500 μM) was “total depletion of glycolipid species” and the “inhibition of α-glucosidases I and II suggested by gp120 endo H sensitivity” value ([7]; 0.5 mM and 5 mM) was “not acting as an inhibitor of α-glucosidases I and II”. The “endo H sensitivity of gp120 N-linked glycans” value ([7]; 0.5 mM or 5 mM (FIG. 7)) was “partially sensitive to endo H and was indistinguishable from the untreated gp120 molecules” and the cytotoxicity [8] was “non-cytotoxic”.
